Test [1] concerns the target sigma receptor. In words: Sigma binding test (in vitro), inhibition of [3H] ditolylguanidine binding. More on the design: species or system guinea pig. As for the experimental part: b) Sigma binding test (in vitro)
The affinity of the compounds of the invention to the sigma receptor in brain tissue is evaluated by the degree of inhibition of the binding of a sigma site radioligand in in vitro competition experiments.
The experiment protocol used is that described by WEBER et at. Proc. Nat. Acad. Sci. USA, (1986), 83, 8784-8788.
The ligand is 1,2-di-(2-[5-^3 H]tolyl)guanidine (Dupont de Nemours--55 Ci/mmol) at a final concentration of 2 nM.
The membrane preparation is a suspension of central nervous system microsomes of a guinea pig used at a final concentration of 0.5 mg of prot/ml.
The non-specific fixation is determined in the presence of 10 μM of haloperidol.
The results, given in Table III, to illustrate the invention are expressed at IC50 =K.0.5 (M)

Test [2] has as its target T1, 5HT1A receptor (Rattus norvegicus, UniProt P19327).
T1 construct: Subcutaneous injection of rats with 8-OH-DPAT spontaneously induces tail movements; from tissue; host or cells: whole living rat (in vivo)
T1 sequence (P19327 1-422): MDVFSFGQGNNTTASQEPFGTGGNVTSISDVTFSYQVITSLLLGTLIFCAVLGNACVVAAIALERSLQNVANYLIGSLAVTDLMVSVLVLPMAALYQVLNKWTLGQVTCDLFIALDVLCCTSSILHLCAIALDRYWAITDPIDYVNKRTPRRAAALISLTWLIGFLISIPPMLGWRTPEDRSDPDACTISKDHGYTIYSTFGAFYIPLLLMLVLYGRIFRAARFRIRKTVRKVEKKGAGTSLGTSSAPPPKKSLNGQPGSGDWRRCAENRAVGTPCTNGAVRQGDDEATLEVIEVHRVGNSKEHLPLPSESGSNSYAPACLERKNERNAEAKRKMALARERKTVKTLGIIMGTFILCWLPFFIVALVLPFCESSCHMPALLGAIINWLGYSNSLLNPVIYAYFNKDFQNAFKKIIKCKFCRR
Description: "Tail-Flicks" test on rats (reduction of 8-OH-DPAT induced tail movements). In kind it is in vivo. The note with it: sc, tail movements induced by subcutaneous 8-OH-DPAT, read-out: ED50 (amount that reduces 8-OH-DPAT action by 50%). The text has this: a) "Tail-Flicks" test on rats
Subcutaneous injection of rats with 8-OH-DPAT spontaneously induces tail movements ("Tail-Flicks"). These movements are reduced in a specific manner by 5HT1A receptor antagonists. The ED50 values, that is to say those amounts of the compounds of the invention that reduce 8-OH-DPAT action by 50%, are listed in Table II.

[3] abbreviates: guinea pig central nervous system microsomes, 0.5 mg of prot/ml, ligand 2 nM, non-specific: 10 μM haloperidol.

Counter-ions that a name gives are not always drawn. Like-named read-outs stand apart in the source and are kept apart here.

`C=COC(=O)N(C)C1CCN(CC2Cc3ccccc32)CC1` (racemic) [Example 42, (R,S)-vinyl N-[1-(benzocyclobuten-1ylmethyl)-piperid-4-yl]-N-methylcarbamate hydrochlo ride]: the IC50 in test [1] (setting [3]) was 50 nM. Besides, in test [2], the ED50 amounted to 1.25 mg/kg.

As for `COC(=O)N(C)C1CCN(CC2Cc3ccccc32)CC1` (stereo not drawn) [Example 8, Methyl [1-benzocyclobuten-1-ylmethyl)-piperid-4-yl]-N-methylcarbamate hydrochloride], in test [2], the ED50 was 1.25 mg/kg.

The compound `CCCOC(=O)N(C)C1CCN(CC2Cc3ccccc32)CC1` (stereo not drawn) [Example 9, Propyl N-[1-(benzocyclobuten-1-ylmethyl)-piperid-4-yl]-N-methylcarbamate hydrochloride] gave an IC50 in test [1] (setting [3]) of 30 nM. Moreover, the ED50 in test [2] is 0.31 mg/kg.

As for `CN(C(=O)OC(C)(C)C)C1CCN(CC2Cc3ccccc32)CC1` (stereo not drawn) [Example 11, Tert-butyl N-[1-(benzocyclobuten-1-ylmethyl)-piperid-4-yl]-N-methylcarbamate hydrochl oride], the ED50 in test [2] is 2.5 mg/kg.

In the case of `CN(C(=O)Oc1ccccc1)C1CCN(CC2Cc3ccccc32)CC1` (stereo not drawn) [Example 12, Phenyl N-[1-(benzocyclobuten-1-ylmethyl)-piperid-4-yl]-N-methylcarbamate hydrochloride], the IC50 in test [1] is 30 nM.

With `CCOC(=O)N(CC)C1CCN(CC2Cc3ccccc32)CC1` (stereo not drawn) [Example 13, Ethyl N-[1-(benzocyclobuten-1-ylmethyl)-piperid-4-yl]-N-ethylcarbamate hydrochloride], the ED50 in test [2] stood at 1.25 mg/kg.

On to `CCN(C(=O)OC)C1CCN(CC2Cc3ccccc32)CC1` (stereo not drawn) [Example 14, Methyl N-[1-(benzocyclobuten-1-ylmethyl)-piperid-4-yl]-N-ethylcarbamate hydrochloride], for which the ED50 in test [2] was determined as 0.02 mg/kg.

For the compound `CC(C)COC(=O)N(C)C1CCN(CC2Cc3ccccc32)CC1` (stereo not drawn) [Example 15, Isobutyl N-[1-(benzocyclobuten-1-ylmethyl)-piperid-4-yl]-N-methylcarbamate fumarate], in test [1] (setting [3]), the IC50 is 100 nM. Also, the ED50 in test [2] came to 1.25 mg/kg.

The compound `CN(C(=O)OCc1ccccc1)C1CCN(CC2Cc3ccccc32)CC1` (stereo not drawn) [Example 19, Benzyl N-[1-(benzocyclobuten-1-ylmethyl)-piperid-4-yl]-N-methylcarbamate hydrochloride] gave an IC50 in test [1] (setting [3]) of 30 nM.

As to `CCN(C(C)=O)C1CCN(CC2Cc3ccccc32)CC1` (stereo not drawn) [Example 21, N-[1-(benzocyclobuten-1-ylmethyl)-piperid-4-yl]-N-ethylacetamide hydrochloride], the ED50 in test [2] was 0.63 mg/kg.

With `CCOC(=O)N(C)C1CCN(CC2Cc3ccccc32)CC1` (stereo not drawn) [Example 23, Ethyl N-[1-(benzocyclobuten-1-ylmethyl)-piperid-4-yl]-N-methylcarbamate hydrochloride], the median effective dose (ED50) in test [2] came out at 2.5 mg/kg.

For the compound `CCOC(=O)N(C)C1CCN(CC2Cc3c2ccc2c3OCO2)CC1` (stereo not drawn) [Example 28, Ethyl N-{1-[(3,4-methylenedioxybenzocyclobuten-1-yl)methyl[-piperid-4-yl}-N-methylcarbamate fumarate], the ED50 in test [2] was determined as 2.5 mg/kg.

In test [1] (setting [3]), `CC(C)COC(=O)N(C)C1CCN(C2Cc3ccccc3C2)CC1` [Example 43, Isobutyl N-[1-(indan-2-yl)-piperid-4-yl]-N-methylcarbamate fumarate] showed an IC50 of 4 nM. This counts as single-digit nanomolar.

`CCCOC(=O)N(C)C1CCN(C2Cc3ccccc3C2)CC1` [Example 44, Propyl N-[1-(indan-2-yl)-piperid-4-yl]-N-methylcarbamate] gave an IC50 in test [1] (setting [3]) of 40 nM. In addition, the ED50 in test [2] was 2.5 mg/kg.
